# Test results as given in patent publication US9645147B2, “Recombinant polypeptide construct comprising Plasmodium falciparum circumsporozoite protein HLA class I restricted T-cell epitopes” (priority 2013, dated 2017).
# “Also recorded” adds a separate entry of the source. Peptide text beside a SMILES is read from it.
# Assays:
# Assay type in all cases: cell-based, human
# [1] = system: PBMC from volunteers immunized with Ad-CA or Ad-C; assay: IFN-γ ELISpot assay with cryopreserved PBMC of immunized volunteers; conditions: for 15 mer sfc/m: Table 2, individual 15mer at 10 μg/mL; for ELISpot response to individual 15mer peptide (in words): volunteers immunized with Ad-CA or Ad-C; for Epitope sfc/m: Table 4; for ELISpot response to synthesized epitope (in words): volunteers, positive = p<0.05, at least doubling and at least ten sfc over negative control
# Description: Previous studies have confirmed that recall-T cell responses, as assayed by ELISpot, are detected using cryopreserved PBMCs although such responses are generally of a lower magnitude than fresh cells (Sedegah, et al., Malar J., 9: 241 (2011)).
# The positive control was commercially obtained Class I Peptide Pool Plus (Anaspec, USA). Negative control was media with all supplements but no antigen-specific stimulant.
# Throughout the studies, IFN-γ ELISpot assays were conducted as previously described (Sedegah, et al., Malar J., 9: 241 (2011); Wang, et al., PNAS (USA), 98: 10817-22 (2001)). Cryopreserved PBMC were suspended in 100 μL complete medium and stimulated with CSP peptides in 100 μL of complete medium at a final concentration of 10 μg/mL of each peptide tested (Wang, et al., PNAS (USA), 98: 10817-22 (2001)).
# Cultures were incubated for 36 hours at 37° C., 5% CO2. Depending on availability of cells, each PBMC sample was assayed in duplicate, triplicate, or quadruplicate and the number of IFN-γ-secreting spot forming cells (sfc) was counted using an automated ELISpot reader (AID, GmbH, Germany). In duplicate assays, all values were used in analysis. […] The mean number of sfcs obtained in negative control wells was subtracted from the value of each test well from the same sample. Negative counts generated by this background subtraction were converted to zero. The mean number of spots of the test sample was then calculated and expressed as spot forming cells/million (sfc/m). A positive response was defined as a significant difference (p=<0.05) between average of the number of spot forming cells (sfc) in test wells and the average of negative control wells (Student's two tailed t-test), and at least a doubling of sfc in test wells relative to negative control wells, and a difference of at least ten sfc between test and negative control wells (Sedegah, et al., PLoS One, 6: e24586 (2011)).
# [2] = system: PBMC depleted of T-cell subsets; assay: ELISpot IFN-γ after T-cell subset depletion (CD4+ or CD8+ Dynabeads, mock control); conditions: for CD4+ depl. sfc/m: after CD4+ T cell depletion; for CD4+ depl. (%) percent change in ELISpot activity: after CD4+ T cell depletion vs control depletion; for CD8+ depl. sfc/m: after CD8+ T cell depletion; for CD8+ depl. (%) percent change in ELISpot activity: after CD8+ T cell depletion vs control depletion; for Control dept. sfc/m: mock (control) depletion
# From the text: For characterization of ELISpot IFN-γ-producing cells by T-cell subset depletions PBMC were depleted of T-cell subsets using anti-human CD4+ or anti-CD8+ coated Dynabeads M-450 (Dynal, Great Neck, N.Y.) following the manufacturer's instructions. Mock depletion was done with Dynabeads coated with sheep anti-mouse IgG. Flow cytometry confirmed that T-cell subset depletions were >99% in all experiments. Data are presented as the spot-forming cells/million (sfc/m) and percent decrease or increase in activity after depletion.
# To further evaluate the predicted epitopes, ELISpot depletion assays were performed using PBMC from four volunteers stimulated with six predicted and tested epitopes. CD8+ T cell depletion reduced responses to Cp1 and Cp9 by 82%100%.
# [3] = system: CD4+ T cells; assay: Intracellular cytokine staining (ICS), IFN-γ, CD4+ population; conditions: for CD4+ % (per cent of CD4+ T cells expressing IFN-γ): ICS, positive >0.03%
# Description: (§1) Intracellular cytokine staining (ICS) was performed as published previously (Stewart, et al, Infect. Immun., 75: 2283-90 (2007)). Cryopreserved PBMC were thawed, washed, and resuspended at 10×10^6 cells per mL in complete medium. Peptides were used at 10 μg/mL and costimulatory antibodies anti-CD28 and […] (BD Bioscience, San Jose, Calif.) were used at 1 μg/mL. Stimulants were added to cells and incubated at 37° C. with 5% CO2 for 2 hours. Cells were stained with anti-CD3, anti-CD4, anti-CD8, anti-IFN-γ, anti-TNFα, and anti-IL2 and the entire available sample was acquired on a BD LSRII using FACSDiVa (BD Bioscience) software. Data were analyzed using FlowJo Software (Treestar, Inc.). The gating strategy involved progressively measuring total cells; viable cells; lymphocytes; T cells; CD4+ or CD8+ populations; and finally a specific cell type expressing a specific cytokine. Results were transferred to Prism (GraphPad) for graphing and statistical analysis. Data for peptides were corrected for media responses. A positive response was greater than the medium controls+3 standard deviations (0.03%).
# [4] = system: CD8+ T cells; assay: Intracellular cytokine staining (ICS), IFN-γ, CD8+ population; conditions: for CD8+ % (per cent of CD8+ T cells expressing IFN-γ): ICS, positive >0.03%
# Description: as §1
# [5] = volunteer 37 (Ad-C), synthesized epitope, single value or first of two assays
# [6] = ICS assays, volunteers of Table 6
# [7] = volunteer 58 (Ad-C), synthesized 8-10mer epitope
# [8] = volunteer 156 (Ad-CA), synthesized 8-10mer epitope
compound,measurement,setting,value
KEYLNKIQNSLSTEW [Cp6-C48],15 mer sfc/m,[1]; volunteer 05 (Ad-CA),106 sfc/m
same,15 mer sfc/m,[1]; volunteer 41 (Ad-C),103 sfc/m
same,15 mer sfc/m,[1]; volunteer 58 (Ad-C),45 sfc/m
same,ELISpot response to individual 15mer peptide (in words),[1],positive
DKHIKEYLNKIQNSL [Cp6-C47],15 mer sfc/m,[1]; volunteer 61 (Ad-C),48 sfc/m
"ELNYDNAGTNLYNEL [Cp2-C10, 15mer CSP peptide aa 37-51]",15 mer sfc/m,[1]; volunteer 41 (Ad-C),35 sfc/m
AILSVSSFLF [Epitope E18],Epitope sfc/m,"[1]; volunteer 63 (Ad-C), synthesized 8-10mer epitope",41 sfc/m
same,ELISpot response to synthesized epitope (in words),[1],positive
CC[C@H](C)[C@H](NC(=O)[C@@H](N)CC(C)C)C(=O)N[C@@H](CCSC)C(=O)N[C@H](C(=O)N[C@@H](CC(C)C)C(=O)N[C@@H](CO)C(=O)N[C@@H](Cc1ccccc1)C(=O)N[C@@H](CC(C)C)C(=O)N[C@@H](Cc1ccccc1)C(=O)O)C(C)C [Epitope E17a] (H-LIMVLSFLF-OH; N-terminus and C-terminus assumed),Epitope sfc/m,"[1]; volunteer 37 (Ad-C), synthesized epitope, second assay (second value of the cell)",38 sfc/m
same,Epitope sfc/m,[1]; [5],55 sfc/m
same,Epitope sfc/m,"[1]; volunteer 40 (Ad-C), synthesized epitope, first of two assays",290 sfc/m
same,Epitope sfc/m,"[1]; volunteer 40 (Ad-C), synthesized epitope, second assay (second value of the cell)",166 sfc/m
same,ELISpot response to synthesized epitope (in words),[1],recognized; also recorded: positive; also recorded: demonstrated activity
same,confirmation as recalling CD8+ T cell responses,[2]; ELISpot depletion and ICS studies,confirmed as recalling CD8+ T cell responses
same,CD4+ depl. sfc/m,[2]; V40,210 sfc/m
same,CD4+ depl. (%) percent change in ELISpot activity,[2]; V40,−11%
same,CD8+ depl. sfc/m,[2]; V40,23 sfc/m
same,CD8+ depl. (%) percent change in ELISpot activity,[2]; V40,−90%
same,Control dept. sfc/m,[2]; V40,236 sfc/m
same,CD4+ depl. sfc/m,[2]; V156,264 sfc/m
same,CD4+ depl. (%) percent change in ELISpot activity,[2]; V156,−18%
same,CD8+ depl. sfc/m,[2]; V156,85 sfc/m
same,CD8+ depl. (%) percent change in ELISpot activity,[2]; V156,−82%
same,Control dept. sfc/m,[2]; V156,307 sfc/m
same,ICS CD4+ T cell recall responses (in words),[3]; [6],negative
same,CD4+ % (per cent of CD4+ T cells expressing IFN-γ),[3]; V40,0.02%
same,CD4+ % (per cent of CD4+ T cells expressing IFN-γ),[3]; V156,0.01%
same,ICS CD8+ T cell recall responses (in words),[4]; [6],positive
same,CD8+ % (per cent of CD8+ T cells expressing IFN-γ),[4]; V40,0.54%
same,CD8+ % (per cent of CD8+ T cells expressing IFN-γ),[4]; V156,0.26%
"SSIGLIMVLSFLFLN [Cp9-C65, 15mer CSP peptide aa 383-397]",15 mer sfc/m,[1]; volunteer 01 (Ad-CA),46 sfc/m
same,15 mer sfc/m,[1]; volunteer 02 (Ad-CA),44 sfc/m
same,15 mer sfc/m,[1]; volunteer 08 (Ad-CA),62 sfc/m
"NELEMNYYGKQENWY [Cp2-C13, 15mer CSP peptide aa 49-63]",15 mer sfc/m,[1]; volunteer 01 (Ad-CA),116 sfc/m
same,15 mer sfc/m,[1]; volunteer 12 (Ad-CA),334 sfc/m
"VFNVVNSSIGLIMVL [Cp9-C63, 15mer CSP peptide aa 377-391]",15 mer sfc/m,[1]; volunteer 08 (Ad-CA),109 sfc/m
same,15 mer sfc/m,[1]; volunteer 61 (Ad-C),80 sfc/m
same,ELISpot response to individual 15mer peptide (in words),[1],positive
"TNLYNELEMNYYGKQ [Cp2-C12, 15mer CSP peptide aa 45-59]",15 mer sfc/m,[1]; volunteer 01 (Ad-CA),119 sfc/m
same,15 mer sfc/m,[1]; volunteer 12 (Ad-CA),411 sfc/m
"IMVLSFLFL (listed as Plasmodium falciparum) [Epitope E21, CSP aa 388-396]",Epitope sfc/m,"[1]; volunteer 125 (Ad-CA), synthesized 8-10mer epitope",29 sfc/m
same,ELISpot response to synthesized epitope (in words),[1],low to modest response; also recorded: demonstrated activity
"EKKICKMEKCSSVFN [Cp9-C60, 15mer CSP peptide aa 365-379]",15 mer sfc/m,[1]; volunteer 61 (Ad-C),39 sfc/m
"FLFVEALFQEYQCYG [Cp1-C4, 15mer CSP peptide aa 13-27]",15 mer sfc/m,[1]; volunteer 01 (Ad-CA),48 sfc/m
same,15 mer sfc/m,[1]; volunteer 05 (Ad-CA),44 sfc/m
same,15 mer sfc/m,[1]; volunteer 12 (Ad-CA),87 sfc/m
same,15 mer sfc/m,[1]; volunteer 69 (Ad-C),368 sfc/m
same,ELISpot response to individual 15mer peptide (in words),[1],positive
CC[C@H](C)[C@H](NC(=O)[C@H](C)N)C(=O)N[C@@H](CC(C)C)C(=O)N[C@@H](CO)C(=O)N[C@H](C(=O)N[C@@H](CO)C(=O)N[C@@H](CO)C(=O)N[C@@H](Cc1ccccc1)C(=O)N[C@@H](CC(C)C)C(=O)O)C(C)C [Epitope E18a],ELISpot response to synthesized epitope (in words),[1],demonstrated activity
"EALFQEYQCYGSSSN [Cp1-05, 15mer CSP peptide aa 17-31]",15 mer sfc/m,[1]; volunteer 58 (Ad-C),105 sfc/m
FLFVEALFQE [Epitope E1],Epitope sfc/m,[1]; [7],49 sfc/m
same,Epitope sfc/m,[1]; [8],105 sfc/m
same,ELISpot response to synthesized epitope (in words),[1],active; also recorded: positive; also recorded: demonstrated activity
"QEYQCYGSSSNTRVL [Cp1-C6, 15mer CSP peptide aa 21-35]",15 mer sfc/m,[1]; volunteer 58 (Ad-C),83 sfc/m
"SVSSFLFVEALFQEY [Cp1-C3, 15mer CSP peptide aa 9-23]",15 mer sfc/m,[1]; volunteer 05 (Ad-CA),65 sfc/m
same,15 mer sfc/m,[1]; volunteer 58 (Ad-C),29 sfc/m
same,15 mer sfc/m,[1]; volunteer 69 (Ad-C),385 sfc/m
same,ELISpot response to individual 15mer peptide (in words),[1],positive
"VNSSIGLIMVLSFLF [Cp9-C64, 15mer CSP peptide aa 381-395]",15 mer sfc/m,[1]; volunteer 08 (Ad-CA),91 sfc/m
CC(C)C[C@H](NC(=O)[C@H](C)NC(=O)[C@H](CCC(=O)O)NC(=O)[C@@H](NC(=O)[C@H](Cc1ccccc1)NC(=O)[C@@H](N)CC(C)C)C(C)C)C(=O)N[C@@H](Cc1ccccc1)C(=O)N[C@@H](CCC(N)=O)C(=O)N[C@@H](CCC(=O)O)C(=O)N[C@@H](Cc1ccc(O)cc1)C(=O)O [Epitope E3] (H-LFVEALFQEY-OH; N-terminus and C-terminus assumed),Epitope sfc/m,"[1]; volunteer 69 (Ad-C), synthesized 8-10mer epitope",259 sfc/m
same,Epitope sfc/m,"[1]; volunteer 127 (Ad-CA), synthesized 8-10mer epitope",99 sfc/m
same,ELISpot response to synthesized epitope (in words),[1],active; also recorded: positive; also recorded: demonstrated activity
CC[C@H](C)[C@H](NC(=O)[C@@H](N)CC(C)C)C(=O)N[C@@H](CCSC)C(=O)N[C@H](C(=O)N[C@@H](CC(C)C)C(=O)N[C@@H](CO)C(=O)N[C@@H](Cc1ccccc1)C(=O)N[C@@H](CC(C)C)C(=O)N[C@@H](Cc1ccccc1)C(=O)N[C@@H](CC(C)C)C(=O)O)C(C)C [Epitope E17],Epitope sfc/m,[1]; [8],156 sfc/m
same,ELISpot response to synthesized epitope (in words),[1],positive
"KCSSVFNVVNSSIGL [Cp9-C62, 15mer CSP peptide aa 373-387]",15 mer sfc/m,[1]; volunteer 01 (Ad-CA),116 sfc/m
SVFNVVNSSI [Epitope E13],Epitope sfc/m,[1]; [5],28 sfc/m
same,Epitope sfc/m,[1]; [7],80 sfc/m
same,ELISpot response to synthesized epitope (in words),[1],positive; also recorded: demonstrated activity
